Results taken from patent US5939279A, “Inhibition of bacterial binding by high-mannose oligosaccharides” (priority 1997, dated 1999).

Columns and labels:
Escherichia coli = conditions: studies by Firon et al (8); cited from earlier work
Enterobacter cloacae = test: microbe, parasite or virus in culture; assay type: cell-based; conditions: for IC50: 1 h, read-out: 50% inhibition of binding; for inhibition of binding: even at 100 mM concentrations
Description: (§1) Bacterial adherence was measured as follows: confluent HT-29 cell monolayers, contained in 24 well plates, were washed two times with PBS. Various amounts of the labeled bacteria, all in the same final volume of buffer, were added to the monolayers and allowed to incubate at 37° C. for 1 hour, with intermittent agitation. At least three wells received each concentration of bacteria. At the end of the incubation, unbound bacteria were removed by aspiration, and the monolayers were washed at least 5 times with PBS. After this thorough washing, the HT-29 cells were released from each well with a trypsin-EDTA mixture and the cell suspension was placed in a scintillation vial. Each well was then washed with another 0.5 ml of water along with scraping with a plastic paddle to remove any firmly attached cells. This second wash was then added to the same vial that contained the first trypsin digest. Ten ml of scintillation fluid were added and radioactivity was determined as a measure of the number of bacteria bound.
A variety of simple sugars (D-mannose, D-galactose, D-fructose, L-fucose, D-GlcNAc, sialic acid) were tested at various concentrations to determine their ability to block the adhesion of Enterobacter cloacae to the HT-29 cells. In addition, p-nitrophenyl-α-D-mannoside and 4-methylumbelliferyl-α-D-mannoside and glycopeptides with various high-mannose or complex types of oligosaccharides were also tested as inhibitors. […] […] The plates were then incubated and harvested as described above in the adherence assay, and the amount of radioactivity bound to the cell monolayer was determined.

HT-29 cells = test: Adhesion of E. cloacae to HT-29 cells grown in the presence of N-linked glycoprotein processing inhibitors; assay type: cell-based; conditions: for activation at 5 µg/mL: inhibitor 5 μg/ml; for activation at 10 µg/mL: inhibitor 10 μg/ml; for activation at 25 µg/mL: inhibitor 25 μg/ml; for activation at 50 µg/mL: inhibitor 50 μg/ml; for Adhesion (cpm): average of three sets of experiments; for activation at 100 µg/mL: inhibitor 100 μg/ml; for change in the amount of radioactive bacteria bound: text summary of Table II
Description: as §1
HT-29 cells were transferred at low density to multiwell plates, and grown in McCoy's medium containing different concentrations of various processing inhibitors. Thus, one 24-well plate was divided into 4 sections, each with 6 wells having the following components: castanospermine at 0, 5, 10, 25, 50 and 100 μg/ml; deoxymannojirimycin at 0, 5, 25, 50, 100 and 200 μg/ml; kifunensine at 0, 2, 5, 10, 25 and 50 μg/ml; swainsonine at 0, 1, 5, 10, 25 and 50 μg/ml. HT-29 cells were allowed to grow to confluency over a period of 4 to 5 days. Once the cells reached confluency, the media was removed by aspiration and the monolayers were washed with PBS. Each well was then challenged with the same number of radioactive bacteria to determine the extent of bacterial adhesion, as described above in the adhesion assay.

35 kDa pili subunit = 35 kDa pili subunit (Enterobacter cloacae, UniProt Q9Z643); test: Modified Western blot: labeling of pili adhesive subunit by α-mannosylated-biotinylated-albumin; assay type: binding; conditions: 50 mM sugar in incubation; FIG. 5
35 kDa pili subunit, sequence (Q9Z643 entry or part of it): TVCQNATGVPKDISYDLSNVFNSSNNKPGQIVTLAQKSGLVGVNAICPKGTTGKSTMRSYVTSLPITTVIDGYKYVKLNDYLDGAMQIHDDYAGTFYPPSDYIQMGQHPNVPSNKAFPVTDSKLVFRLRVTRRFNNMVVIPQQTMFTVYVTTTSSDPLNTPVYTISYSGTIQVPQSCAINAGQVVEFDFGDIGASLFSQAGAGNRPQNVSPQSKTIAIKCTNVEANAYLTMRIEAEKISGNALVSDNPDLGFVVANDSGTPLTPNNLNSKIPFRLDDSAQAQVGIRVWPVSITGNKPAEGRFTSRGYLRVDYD
Description: Modified Western blot using an α-mannosylated-biotinylated-albumin, followed by an avidin-horseradish peroxidase conjugate and then visualization with 4-chloro-napthol according to the manufacturer's directions; D. Reaction system as in C, but incubated in the presence of 50 mM α-D-glucose; E. Reaction system as in C and D, but incubated in the presence of 50 mM α-D-mannose.
Thus, purified pili were subjected to 12% SDS-PAGE, and the resulting protein bands were transferred to nitrocellulose membranes. After washing the membranes to remove SDS, and incubating them with PBS containing 5% bovine serum albumin, they were incubated for 2 hours at room temperature with a mannosylated-albumin that contained a biotin tag. Some incubations also contained 50 mM D-mannose or 50 mM D-glucose.

[1] = Homo sapiens, HT-29, percent relative to the control, read-out: Increase in adhesion (%)
[2] = inhibitor 5 μg/ml in culture medium
[3] = inhibitor 10 μg/ml in culture medium
[4] = inhibitor 25 μg/ml in culture medium
[5] = inhibitor 50 μg/ml in culture medium
[6] = inhibitor 100 μg/ml in culture medium

O=[N+]([O-])c1ccc(O[C@H]2O[C@H](CO)[C@@H](O)[C@H](O)[C@@H]2O)cc1 [p-nitrophenyl-α-D-mannoside]
inhibitor of Escherichia coli binding to epithelial cells, relative effectiveness (Escherichia coli): considerably better as an inhibitor than was α-methylmannoside | reversal of binding (Enterobacter cloacae; 0.5 mM added to the monolayers after the bacteria had bound): reversed | IC50 (Enterobacter cloacae; Enterobacter cloacae): 20 µM

O=C1N[C@@H]2[C@@H](O)[C@@H](O)[C@H](O)[C@@H](CO)N2C1=O [Kifunensine]
activation at 2 µg/mL (HT-29 cells; Homo sapiens, HT-29, inhibitor 2 μg/ml, percent relative to the control, read-out: Increase in adhesion (%)): 42% | activation at 5 µg/mL (HT-29 cells; [1]): 50% | activation at 10 µg/mL (HT-29 cells; [1]): 43% | activation at 25 µg/mL (HT-29 cells; [1]): 52% | activation at 50 µg/mL (HT-29 cells; [1]): 75% | Adhesion (cpm) (HT-29 cells; inhibitor 2 μg/ml in culture medium): 19,033 cpm | Adhesion (cpm) (HT-29 cells; [2]): 20,161 cpm | Adhesion (cpm) (HT-29 cells; [3]): 19,257 cpm | Adhesion (cpm) (HT-29 cells; [4]): 20,414 cpm | Adhesion (cpm) (HT-29 cells; [5]): 23,442 cpm

Cc1cc(=O)oc2cc(O[C@H]3O[C@H](CO)[C@@H](O)[C@H](O)[C@@H]3O)ccc12 [4-methylumbilliferyl-α-D-mannoside, 4-methylumbelliferyl-α-D-mannoside]
inhibitor of Escherichia coli binding to epithelial cells, relative effectiveness (Escherichia coli): even better then the p-nitrophenyl-derivative | IC50 (Enterobacter cloacae; Enterobacter cloacae): 10 µM | inhibition at 100 µM (Enterobacter cloacae; Enterobacter cloacae, read-out: inhibition of binding): 80 to 90%

CC(=O)N[C@H]1C(O)O[C@H](CO)[C@@H](O)[C@@H]1O (some centres unmarked) [N-acetylglucosamine]
inhibition of binding (Enterobacter cloacae): did not inhibit binding

OC[C@H]1OC(O)[C@@H](O)[C@@H](O)[C@@H]1O (stereo partly drawn) [D-mannose]
labeling of the 35 kDa band by mannosylated-biotinylated-albumin (35 kDa pili subunit): inhibited | IC50 (Enterobacter cloacae; Enterobacter cloacae): 500 µM

OC[C@H]1NC[C@@H](O)[C@@H](O)[C@@H]1O [Deoxymannojirimycin]
activation at 5 µg/mL (HT-29 cells; [1]): 36% | activation at 25 µg/mL (HT-29 cells; [1]): 47% | activation at 50 µg/mL (HT-29 cells; [1]): 49% | activation at 100 µg/mL (HT-29 cells; [1]): 53% | activation at 200 µg/mL (HT-29 cells; Homo sapiens, HT-29, inhibitor 200 μg/ml, percent relative to the control, read-out: Increase in adhesion (%)): 50% | Adhesion (cpm) (HT-29 cells; [2]): 18,630 cpm | Adhesion (cpm) (HT-29 cells; [4]): 20,180 cpm | Adhesion (cpm) (HT-29 cells; [5]): 20,500 cpm | Adhesion (cpm) (HT-29 cells; [6]): 21,018 cpm | Adhesion (cpm) (HT-29 cells; inhibitor 200 μg/ml in culture medium): 20,548 cpm

C[C@H](O)[C@@H](O)[C@@H](O)[C@H](O)C=O [L-fucose]
inhibition of binding (Enterobacter cloacae): did not inhibit binding

O[C@H]1[C@H]2[C@H](O)CCCN2C[C@H]1O [Swainsonine]
activation at 1 µg/mL (HT-29 cells; Homo sapiens, HT-29, inhibitor 1 μg/ml, percent relative to the control, read-out: Increase in adhesion (%)): 10% | activation at 5 µg/mL (HT-29 cells; [1]): 5% | activation at 10 µg/mL (HT-29 cells; [1]): 11% | activation at 50 µg/mL (HT-29 cells; [1]): 8% | Adhesion (cpm) (HT-29 cells; inhibitor 1 μg/ml in culture medium): 15,219 cpm | Adhesion (cpm) (HT-29 cells; [2]): 14,577 cpm | Adhesion (cpm) (HT-29 cells; [3]): 15,275 cpm | Adhesion (cpm) (HT-29 cells; [4]): 13,857 cpm | Adhesion (cpm) (HT-29 cells; [5]): 14,965 cpm | change in the amount of radioactive bacteria bound (HT-29 cells): did not cause any change

CO[C@H]1O[C@H](CO)[C@@H](O)[C@H](O)[C@@H]1O [α-methylmannoside]
reversal of binding (Enterobacter cloacae; 5 mM added to the monolayers after the bacteria had bound): reversed | IC50 (Enterobacter cloacae; Enterobacter cloacae): 150 µM

O[C@H]1[C@H](O)[C@@H](O)CN2CC[C@H](O)[C@H]12 [Castanospermine]
activation at 100 µg/mL (HT-29 cells; [1]): 8% | Adhesion (cpm) (HT-29 cells; [2]): 12,410 cpm | Adhesion (cpm) (HT-29 cells; [3]): 13,787 cpm | Adhesion (cpm) (HT-29 cells; [4]): 13,973 cpm | Adhesion (cpm) (HT-29 cells; [5]): 13,626 cpm | Adhesion (cpm) (HT-29 cells; [6]): 14,943 cpm | change in the amount of radioactive bacteria bound (HT-29 cells): did not cause any significant change

OC[C@H]1OC(O)[C@H](O)[C@@H](O)[C@@H]1O (stereo partly drawn) [D-glucose]
inhibition of binding (Enterobacter cloacae): did not inhibit binding

O=C[C@H](O)[C@@H](O)[C@@H](O)[C@H](O)CO [D-galactose]
inhibition of binding (Enterobacter cloacae): did not inhibit binding

CC(=O)N[C@H]1C(O)O[C@H](CO)[C@H](O)[C@@H]1O (some centres unmarked) [N-acetylgalactosamine]
inhibition of binding (Enterobacter cloacae): did not inhibit binding

CC(=O)N[C@H]1[C@H]([C@H](O)[C@H](O)CO)OC(O)(C(=O)O)C[C@@H]1O (some centres unmarked) [sialic acid]
inhibition of binding (Enterobacter cloacae): did not inhibit binding
